Holding throughout (assay): NCI anticancer screen, dose series, 48 h
For experiment [1], the system named is A498 renal.
Experiment [2] deals with DU-145 prostate.
Experiment [3] concerns HCT-15 colon.
The subject of experiment [4] is K-562 leukemia.
For experiment [5], the system named is KM12 colon.
In experiment [6] the test system is MDA-N.
The subject of experiment [7] is OVCAR-5 ovarian.
Experiment [8] deals with RPMI-8226 leukemia.
The subject of experiment [9] is SR leukemia.
Experiment [10] deals with OVCAR-4 ovarian.

Molecules are shown by their SMILES.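 Interpolation was linear, between the two tested concentrations surrounding the appropriate level; five concentrations were tested over 48 hours in 96-well plates. TGI: total growth inhibition.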 Some results are limits rather than exact numbers.

Consider `O=C(CN1CCCCC1)Nc1ccc2c(c1)C1Oc3ccccc3CC1CO2` (stereo not given), for which the TGI was 62.8 µM in [1]; > 100 µM in experiment [2]; 35.1 µM in [3]; > 100 µM in [4]; 49.9 µM in experiment [5]; 36.7 µM in experiment [6]. In addition, the TGI in experiment [7] is 38.2 µM; in experiment [8] it was > 100 µM; in experiment [9], > 100 µM.
For `Cc1ccc(-c2cc[n+]3c(n2)oc2ccccc23)cc1`, the TGI in experiment [1] is 65.4 µM; in experiment [2], > 100 µM; in [3] it was > 100 µM; in experiment [4] it was 22.5 µM; in [5], > 100 µM; in experiment [6], > 100 µM. Further, the TGI in [10] was 48.8 µM; in experiment [7] it was > 100 µM; in [8], 54.4 µM; in experiment [9] it was 47 µM.
For `Nc1ccc2ccc(N3CCNCC3)nc2n1`, the TGI in [2], in experiment [3], in experiment [4], in experiment [5], in experiment [6] and in experiment [10] was > 100 µM throughout. The TGI in [7], in experiment [8] and in [9] was > 100 µM each time.
With `COC(=O)C(Cc1c[nH]c2ccccc12)NP(=O)(O)OCC1OC(n2cc(Br)c(=O)[nH]c2=O)CC1O` (stereo not given), the TGI in experiment [1], in [2], in experiment [3], in experiment [4], in experiment [5] and in experiment [6] was > 100 µM throughout. Further, the TGI in experiment [10], in experiment [7] and in [9] was > 100 µM in each case.
In the case of `CN(C)CCOc1ccc(-c2c(Oc3ccccc3)c(=O)oc3ccccc23)cc1`, the TGI in experiment [1] came to 27 µM; in experiment [2] it was 29.3 µM; in experiment [3] it was 22.6 µM; in [4], 23 µM; in experiment [5], 77.8 µM; in experiment [6], 4.7 µM. Moreover, the TGI in [10] was 59 µM; in [7], 29.2 µM; in experiment [8], 40.8 µM; in experiment [9] it was 19.4 µM.
On to `O[C@@H]1CCC[C@@H]2NC[C@@H](c3ccc4c(c3)OCO4)[C@H]12`, for which the TGI in [1], in [2], in experiment [3], in experiment [4], in experiment [5] and in experiment [6] was > 100 µM each time. Also, the TGI in [10], in [7], in [8] and in experiment [9] was > 100 µM throughout.
In the case of `CCCCc1ccc(Nc2nc(Cl)c3c(ncn3C3CC(Oc4ccc(C)cc4)C(COc4ccc(C)cc4)O3)n2)cc1` (stereo not given), the TGI in [1], in experiment [2], in experiment [3], in [4], in experiment [5] and in experiment [6] was > 100 µM in each case. The TGI in experiment [10], in experiment [7], in experiment [8] and in experiment [9] was > 100 µM each time.
Turning to `C=CC(=O)N1C/C(=C\c2ccc([N+](=O)[O-])cc2)C(=O)/C(=C/c2ccc([N+](=O)[O-])cc2)C1`, the TGI in experiment [1] amounted to 0.807 µM; in experiment [2] it was 2.36 µM; in experiment [3], 0.272 µM; in experiment [5] it was 0.607 µM; in experiment [6], 0.856 µM; in experiment [10] it was 1.33 µM. Besides, the TGI in experiment [7] is 1.18 µM; in experiment [8] it was > 100 µM; in [9], > 100 µM.
On to `Cc1ccc(S(=O)(=O)N/N=C2\CC3CC4CCC2C4C3)cc1` (stereo not given), for which the TGI in experiment [1], in [2], in experiment [3], in experiment [4], in [5] and in experiment [6] was > 100 µM in each case. The TGI in experiment [10], in experiment [7], in experiment [8] and in experiment [9] was > 100 µM throughout.
As for `COC1=C(C)C(=O)C2=C(C1=O)C1C3CC4=C(C(=O)C(OC)=C(C)C4=O)C(CNC(=O)C(C)O)N3C(C#N)C(C2)N1C` (stereo not given), the TGI in experiment [2] was 0.0566 µM; in [3], 10.5 µM; in experiment [4], 1.48 µM; in [5] it was 0.827 µM; in [6], < 0.0107 µM; in experiment [10], 0.334 µM. The TGI in experiment [7] was 0.0888 µM; in experiment [8] it was < 0.215 µM; in experiment [9], > 100 µM.
With `CCC(CC)(CO)CNc1cc(Cl)nc(N)n1`, the TGI in experiment [1], in experiment [2], in experiment [3], in experiment [4], in [5] and in [6] was > 100 µM in each case. The TGI in experiment [10], in experiment [7], in [8] and in [9] was > 100 µM in each case.
On to `O=[N+]([O-])c1cc2ccc(N(CCO)CCO)nc2nc1N(CCO)CCO`, for which the TGI in experiment [1], in [2], in experiment [3], in experiment [4], in experiment [5] and in experiment [6] was > 100 µM each time. Besides, the TGI in experiment [10], in experiment [7], in experiment [8] and in [9] was > 100 µM each time.
For the molecule `O=C(O)c1c2c(cc3c1CC1(Cc4cc5c(cc4C1=O)CCC5)C3)CCC2` (stereo not given), the TGI in experiment [1], in [2], in [3], in experiment [4], in [5] and in experiment [6] was > 100 µM throughout. In addition, the TGI in [10], in experiment [7], in experiment [8] and in experiment [9] was > 100 µM throughout.

The values above are taken from PubChem BioAssay (NCI).
